Assay results taken from publication PMC10138554, “Insights into the Microbicidal, Antibiofilm, Antioxidant and Toxicity Profile of New O-Aryl-Carbamoyl-Oxymino-Fluorene Derivatives” (International Journal of Molecular Sciences, 2023).
≈ marks a conversion by molar mass, not a printed value.

Tests used:
[1] = system: E. coli ATCC 25922; assay: Anti-biofilm activity assay, purple violet microtiter method; assay type: cell-based, Escherichia coli; details: E. coli ATCC 25922 biofilm
Experimental: The inhibitory activity of the obtained compounds has been assessed on five microbial strains, respectively: E. coli ATCC 25922, P. aeruginosa ATCC 27853, S. aureus ATCC 25923, E. faecalis ATCC 29212 and C. albicans ATCC 90029, in a planktonic and adherent growth state.
The anti-biofilm activity assay was performed by the purple violet microtiter method, as previously described, allowing us to determine the minimal biofilm inhibitory concentration (MBEC). The same range of concentrations, as in the MIC assay, i.e., from 5 to 0.009 mg/mL has been tested.

[2] = system: P. aeruginosa ATCC 27892; assay: Flow cytometry (FCM) membrane depolarization, DiBAC4(3); assay type: cell-based, Pseudomonas aeruginosa; details: subinhibitory concentration tested 2.5 mg/mL, DiBAC4, 18–24 h
Experimental: The investigation of potential mechanisms of antimicrobial action by flow cytometry (FCM) was performed on microbial cultures obtained after 18–24 h of microbial cell incubation in the presence of subinhibitory concentrations of the analyzed compounds. Thus, microbial suspensions with a density of approximately 10^6 CFU/mL were prepared in sterile saline phosphate buffer from exponentially growing microbial cultures, obtained on a solid culture medium. Subinhibitory concentrations of the compounds were prepared in Muller–Hinton liquid culture medium and inoculated with an equal amount of microbial suspension and incubated for 18–24 h at 37 °C.
Microbial suspensions inoculated in a liquid medium were used as growth control. After incubation, the DiBAC4 fluorochrome solution [bis-(1,3-dibutylbarbituric acid) trimethinoxonol] Invitrogen/Life Technologies, Carlsbad, was added (0.5 μg/mL).
Fluorescence intensity (FI) was measured with an Accuri C6 plus flow cytometer in the FITC fluorescence channel. Growth control was used to locate the microbial cell population for fluorescence measurements. DiBAC4 dye was used to detect changes in the microbial membrane potential. […] A twofold increased fluorescence intensity (median fluorescence intensity = MFI) was considered to correspond to the depolarized microbial cells. For each subinhibitory concentration, a coloring index (CI) was calculated which represents the ratio of fluorescence intensity (FI) of treated versus untreated cells.

[3] = Toxicity on the Artemia franciscana Kellog crustacean species (lethality of nauplii); assay type: in vivo; details: Artemia franciscana Kellog (brine shrimp nauplii), in vivo, other: nauplii placed in contact with the test suspensions, four-parameter logistic model
Experimental: The oocysts (Great Salt Lake, USA) provided by S.K. Trading were grown on artificial seawater medium (Coral Marine, Grotech), dissolved in distilled water with a few minutes of sonication, at 30 g/L concentration. The test was carried out in a 24-well plate, using three replicates. Because of their low solubility, the compounds 1a–d were suspended in the culture medium using sodium alginate (0.045%) (also used a negative control), the testing being carried out at the solubility limit. The concentrations 100, 50, 25, 12.5 and 6.2 μg/mL used for each substance were obtained by successive dilutions starting from the initial suspension. Between 10 and 15 nauplii per well were collected and placed in contact with the test suspensions (1.5 mL/well). All nauplii, dead or alive, were counted and recorded within 24 h of being placed in contact with the tested suspensions. The non-linear modeling of the concentration-lethality relationship was achieved through a four-parameter logistics model (4PL), implemented in several robust variants for estimating parameters in the R package “dr4pl” [78].

SMILES	minimum biofilm inhibitory concentration (MBIC) [1]	staining index value (SI) [2]	LC50 at 24 h [3]
O=C(Nc1ccccc1)ON=C1c2ccccc2-c2ccccc21 [Compound 1a, 9-(phenylcarbamoyloxymino)fluoren]	0.625 mg/mL	6.68	
O=C(Nc1ccc(Cl)c(Cl)c1)ON=C1c2ccccc2-c2ccccc21 [Compound 1d, 9-((3,4-dichloro-phenyl)carbamoyloxymino)fluoren]	0.625 mg/mL	20.45	14.6 µg/mL (≈ 38.2 µM)
O=C(Nc1cccc(Cl)c1)ON=C1c2ccccc2-c2ccccc21 [Compound 1c, 9-((3-chloro-phenyl)carbamoyloxymino)fluoren]	1.25 mg/mL	2.38	
Cc1cccc(NC(=O)ON=C2c3ccccc3-c3ccccc32)c1 [Compound 1b, 9-((3-methyl-phenyl)carbamoyloximino)fluoren]	0.078 mg/mL	6.5	
